According to EPA's ToxValDB 9.5 (doi:10.2903/j.efsa.2018.5429):
In brackets after ≈: the same amount, converted by molar mass.

Tests used:
[1] = test system: Aphidius rhopalosiphi; test: LR50; higher = less toxic; details: not reported; mortality
[2] = test system: Anas platyrhynchos; details: reproductive
[3] = test system: Hypoaspis aculeifer; details: acute; duration: 14 days
[4] = test system: Apis mellifera; details: acute, duration: 48 hours, mortality
[5] = test system: Rattus norvegicus; details: for NOAEL: reproduction developmental
[6] = test system: Lepomis macrochirus; details: acute; duration: 96 hours; mortality
[7] = test system: Coturnix japonica; details: acute; oral; mortality
[8] = test system: Tagia sp.; details: chronic/long-term; duration: 56 days; body weight
[9] = test system: Daphnia magna; details: chronic/long-term; duration: 21 days; reproduction
[10] = test system: Oncorhynchus mykiss; details: chronic/long-term; duration: 56 days; behavior
[11] = test system: Canidae; details: subchronic; duration: 90 days; oral; Dog Other; clinical signs

`CNC(=O)Oc1cc(C)c(SC)c(C)c1` [Methiocarb] showed an LR50 [1] of 8.5 g/ha, an NOAEL [2] of 4.51 mg/kg-day and an NOEC [3] of 10.1 mg/kg. For the same compound, the LD50 ([4]; dermal) was 0.23 µg/piece, the LD50 ([4]; oral, unspecified) was 0.08 µg/piece and the LD50 ([5]; acute, oral, mortality) was under 50 mg/kg-day. It also gave an NOAEL ([5]; body weight) of 4.3 mg/kg-day, an NOAEL ([5]; clinical signs) of 0.5 mg/kg-day and an LC50 [6] of 0.65 µg/mL (≈ 2.88 µM). For the same compound, the LD50 [7] was 5 mg/kg-day, the NOEC [8] was 0.08 mg/kg and the NOEC [9] was 0.0001 mg/L. The NOEC [10] was 0.05 mg/L and the NOAEL [11] was 0.25 mg/kg-day.
